Assay results published in patent US4110327A, “2,3 Diketo-piperazinocarbonylamino alkanoic acids and derivatives” (Toyama Chemical Co., Ltd., priority 1974, dated 1978).
Converted amounts (≈) assume the structure as drawn.

Assays:
Type in all cases: cell-based
Escherichia coli NIHJ = test: MIC against standard strain, plate method; conditions: unit assumed
Procedure: (§1) The minimum inhibitory concentrations (MIC) was determined by the plate method disclosed in "Chemotherapy" (Japan), Vol. 16, (1968), pages 98 - 99. The culture medium used was a Heart infusion agar (pH 7.4). The number of the cells per plate used in the inoculum as 10^4 (10^6 cells/ml).

Klebsiella pneumoniae [1] = test: MIC against standard strain, plate method; conditions: unit assumed
Procedure: as §1

Proteus vulgaris 3027 = test: MIC against standard strain, plate method; conditions: Proteus vulgaris 3027, standard strain; unit assumed
Procedure: as §1

[2] = system: Pseudomonas aeruginosa I.F.O.; test: MIC against standard strain, plate method; conditions: unit assumed
Procedure: as §1

[3] = system: Staphylococcus aureus 209p; test: MIC against standard strain, plate method; conditions: unit assumed
Procedure: as §1

Staphylococcus aureus = test: MIC against clinical isolates; conditions: unit assumed
Escherichia coli = test: MIC against clinical isolates; conditions: unit assumed
Pseudomonas aeruginosa = test: MIC against clinical isolates; conditions: unit assumed
Klebsiella pneumoniae [4] = test: MIC against clinical isolates; conditions: unit assumed

CN1CCN(C(=O)N[C@@H](C(=O)N[C@@H]2C(=O)N3[C@@H]2SC(C)(C)[C@@H]3C(=O)OCOC(=O)C(C)(C)C)c2ccccc2)C(=O)C1=O (single isomer, unassigned) [compound 52]
MIC (Escherichia coli NIHJ): 0.79 µg/mL (≈ 1.28 µM)
MIC (Klebsiella pneumoniae [1]): 25 µg/mL (≈ 40.5 µM)
MIC (Proteus vulgaris 3027): 1.57 µg/mL (≈ 2.54 µM)
MIC [2]: 25 µg/mL (≈ 40.5 µM)
MIC [3]: 0.79 µg/mL (≈ 1.28 µM)

CC1(C)S[C@@H]2[C@H](NC(=O)[C@H](NC(=O)N3CCN(CCO)C(=O)C3)c3ccccc3)C(=O)N2[C@H]1C(=O)O [compound 24]
MIC (Escherichia coli NIHJ): < 1.57 µg/mL
MIC (Klebsiella pneumoniae [1]): 50 µg/mL (≈ 96.2 µM)
MIC (Proteus vulgaris 3027): 25 µg/mL (≈ 48.1 µM)
MIC [2]: 50 µg/mL (≈ 96.2 µM)
MIC [3]: 3.13 µg/mL (≈ 6.02 µM)

CC(C)CCN1CCN(C(=O)N[C@@H](C(=O)N[C@@H]2C(=O)N3[C@@H]2SC(C)(C)[C@@H]3C(=O)O)c2ccccc2)CC1=O [compound 21]
MIC (Escherichia coli NIHJ): 1.57 µg/mL (≈ 2.88 µM)
MIC (Klebsiella pneumoniae [1]): 25 µg/mL (≈ 45.8 µM)
MIC (Proteus vulgaris 3027): 3.13 µg/mL (≈ 5.74 µM)
MIC [2]: 25 µg/mL (≈ 45.8 µM)
MIC [3]: < 0.79 µg/mL

CC1(C)S[C@@H]2[C@H](NC(=O)[C@H](NC(=O)N3CCN(C(=O)C(Cl)Cl)CC3=O)c3ccccc3)C(=O)N2[C@H]1C(=O)O [compound 2]
MIC (Escherichia coli NIHJ): < 1.57 µg/mL
MIC (Klebsiella pneumoniae [1]): 12.5 µg/mL (≈ 21.3 µM)
MIC (Proteus vulgaris 3027): 6.25 µg/mL (≈ 10.7 µM)
MIC [2]: 50 µg/mL (≈ 85.3 µM)
MIC [3]: < 1.57 µg/mL

CCCCCCCCN1CCN(C(=O)N[C@@H](C(=O)N[C@@H]2C(=O)N3[C@@H]2SC(C)(C)[C@@H]3C(=O)OCOC)c2ccccc2)C(=O)C1=O (single isomer, unassigned) [compound 51]
MIC (Escherichia coli NIHJ): < 0.4 µg/mL
MIC (Klebsiella pneumoniae [1]): < 0.4 µg/mL
MIC (Proteus vulgaris 3027): < 0.4 µg/mL
MIC [2]: 12.5 µg/mL (≈ 19.4 µM)
MIC [3]: < 0.4 µg/mL

CCCCCC(=O)N1CCN(C(=O)N[C@@H](C(=O)N[C@@H]2C(=O)N3[C@@H]2SC(C)(C)[C@@H]3C(=O)O)c2ccccc2)C(=O)C1 [compound 6]
MIC (Escherichia coli NIHJ): 3.13 µg/mL (≈ 5.46 µM)
MIC (Klebsiella pneumoniae [1]): 6.25 µg/mL (≈ 10.9 µM)
MIC (Proteus vulgaris 3027): 6.25 µg/mL (≈ 10.9 µM)
MIC [2]: 50 µg/mL (≈ 87.2 µM)
MIC [3]: 3.13 µg/mL (≈ 5.46 µM)

C=C(C)CN1CCN(C(=O)N[C@@H](C(=O)N[C@@H]2C(=O)N3[C@@H]2SC(C)(C)[C@@H]3C(=O)O)c2ccccc2)CC1=O [compound 27]
MIC (Escherichia coli NIHJ): < 1.57 µg/mL
MIC (Klebsiella pneumoniae [1]): 25 µg/mL (≈ 47.2 µM)
MIC (Proteus vulgaris 3027): 3.13 µg/mL (≈ 5.91 µM)
MIC [2]: 25 µg/mL (≈ 47.2 µM)
MIC [3]: < 1.57 µg/mL

CC1(C)S[C@@H]2[C@H](NC(=O)[C@H](NC(=O)N3CCN(C(=O)C4CCCCC4)CC3=O)c3ccccc3)C(=O)N2[C@H]1C(=O)O [compound 3]
MIC (Escherichia coli NIHJ): < 1.57 µg/mL
MIC (Klebsiella pneumoniae [1]): 3.13 µg/mL (≈ 5.34 µM)
MIC (Proteus vulgaris 3027): 3.13 µg/mL (≈ 5.34 µM)
MIC [2]: 100 µg/mL (≈ 171 µM)
MIC [3]: < 1.57 µg/mL

CN1CCN(C(=O)N[C@@H](C(=O)N[C@@H]2C(=O)N3[C@@H]2SC(C)(C)[C@@H]3C(=O)OC2OC(=O)c3ccccc32)c2ccccc2)C(=O)C1=O (single isomer, unassigned) [compound 49]
MIC (Escherichia coli NIHJ): 0.79 µg/mL (≈ 1.24 µM)
MIC (Klebsiella pneumoniae [1]): 12.5 µg/mL (≈ 19.7 µM)
MIC (Proteus vulgaris 3027): 1.57 µg/mL (≈ 2.47 µM)
MIC [2]: 12.5 µg/mL (≈ 19.7 µM)
MIC [3]: < 0.4 µg/mL

CCCCN1CCN(C(=O)N[C@@H](C(=O)N[C@@H]2C(=O)N3[C@@H]2SC(C)(C)[C@@H]3C(=O)O)c2ccccc2)CC1=O [compound 18]
MIC (Escherichia coli NIHJ): < 1.57 µg/mL
MIC (Klebsiella pneumoniae [1]): 25 µg/mL (≈ 47 µM)
MIC (Proteus vulgaris 3027): 3.13 µg/mL (≈ 5.89 µM)
MIC [2]: 12.5 µg/mL (≈ 23.5 µM)
MIC [3]: < 1.57 µg/mL

CC1(C)SC2C(NC(=O)C(NC(=O)N3CCNC(=O)C3=O)c3ccccc3)C(=O)N2C1C(=O)O (centres unmarked) [compound 59]
MIC (Escherichia coli NIHJ): < 1.57 µg/mL
MIC (Klebsiella pneumoniae [1]): 200 µg/mL (≈ 409 µM)
MIC (Proteus vulgaris 3027): 3.13 µg/mL (≈ 6.39 µM)
MIC [2]: 25 µg/mL (≈ 51.1 µM)
MIC [3]: < 1.57 µg/mL

O=C(Cc1cccs1)N[C@@H]1C(=O)N2C(C(=O)[O-])=C(C[n+]3ccccc3)CS[C@H]12 [Cephalorizine, reference compound]
MIC (Staphylococcus aureus; clinical isolate F-1): < 0.4 µg/mL
MIC (Staphylococcus aureus; clinical isolate F-2): < 0.4 µg/mL
MIC (Staphylococcus aureus; clinical isolate F-3): < 0.4 µg/mL
MIC (Staphylococcus aureus; clinical isolate F-4): < 0.4 µg/mL
MIC (Staphylococcus aureus; clinical isolate F-5): 0.78 µg/mL (≈ 1.88 µM)
MIC (Staphylococcus aureus; clinical isolate MS 8588): < 0.4 µg/mL
MIC (Staphylococcus aureus; clinical isolate MS 8596): < 0.4 µg/mL
MIC (Staphylococcus aureus; clinical isolate MS 8619): < 0.4 µg/mL
MIC (Staphylococcus aureus; clinical isolate MS 8684): < 0.4 µg/mL
MIC (Staphylococcus aureus; clinical isolate MS 8713): < 0.4 µg/mL
MIC (Escherichia coli; clinical isolate GN 3435): 3.13 µg/mL (≈ 7.53 µM)
MIC (Escherichia coli; clinical isolate GN 3452): 3.13 µg/mL (≈ 7.53 µM)
MIC (Escherichia coli; clinical isolate GN 3465): 50 µg/mL (≈ 120 µM)
MIC (Escherichia coli; clinical isolate GN 3481): 3.13 µg/mL (≈ 7.53 µM)
MIC (Escherichia coli; clinical isolate GN 3611): 100 µg/mL (≈ 241 µM)
MIC (Escherichia coli; clinical isolate K-1): 3.13 µg/mL (≈ 7.53 µM)
MIC (Escherichia coli; clinical isolate K-2): 3.13 µg/mL (≈ 7.53 µM)
MIC (Escherichia coli; clinical isolate K-3): 200 µg/mL (≈ 481 µM)
MIC (Escherichia coli; clinical isolate K-4): 6.25 µg/mL (≈ 15 µM)
MIC (Pseudomonas aeruginosa; clinical isolate GN 82): > 200 µg/mL
MIC (Pseudomonas aeruginosa; clinical isolate GN 163): > 200 µg/mL
MIC (Pseudomonas aeruginosa; clinical isolate GN 221): > 200 µg/mL
MIC (Pseudomonas aeruginosa; clinical isolate GN 244): > 200 µg/mL
MIC (Pseudomonas aeruginosa; clinical isolate GN 376): > 200 µg/mL
MIC (Pseudomonas aeruginosa; clinical isolate GN 383): > 200 µg/mL
MIC (Pseudomonas aeruginosa; clinical isolate GN 1035): > 200 µg/mL
MIC (Pseudomonas aeruginosa; clinical isolate GN 1091): > 200 µg/mL
MIC (Pseudomonas aeruginosa; clinical isolate GN 2565): > 200 µg/mL
MIC (Pseudomonas aeruginosa; clinical isolate GN 2987): > 200 µg/mL
MIC (Pseudomonas aeruginosa; clinical isolate S-1): > 200 µg/mL
MIC (Pseudomonas aeruginosa; clinical isolate S-2): > 200 µg/mL
MIC (Pseudomonas aeruginosa; clinical isolate S-3): > 200 µg/mL
MIC (Pseudomonas aeruginosa; clinical isolate S-4): > 200 µg/mL
MIC (Klebsiella pneumoniae [4]; clinical isolate GN 917): 3.13 µg/mL (≈ 7.53 µM)
MIC (Klebsiella pneumoniae [4]; clinical isolate GN 4081): 12.5 µg/mL (≈ 30.1 µM)
MIC (Klebsiella pneumoniae [4]; clinical isolate GN 4117): 12.5 µg/mL (≈ 30.1 µM)

O=C(Cc1cccs1)N[C@@H]1C(=O)N2C(C(=O)[O-])=C(C[n+]3ccccc3)CS[C@H]12 [Cephaloridine, reference compound]
MIC (Escherichia coli NIHJ): > 3.13 µg/mL
MIC (Klebsiella pneumoniae [1]): 200 µg/mL (≈ 481 µM)
MIC [2]: 200 µg/mL (≈ 481 µM)
MIC [3]: < 1.57 µg/mL

CC1(C)S[C@@H]2[C@H](NC(=O)[C@H](NC(=O)N3CCN(C(=O)c4ccc(Cl)cc4)CC3=O)c3ccccc3)C(=O)N2[C@H]1C(=O)O [compound 8]
MIC (Escherichia coli NIHJ): < 1.57 µg/mL
MIC (Klebsiella pneumoniae [1]): 6.25 µg/mL (≈ 10.2 µM)
MIC [3]: < 1.57 µg/mL
